Measurements as given in patent US20110077230A1, “COPPER ORGANOCOMPLEXES, USE THEREOF AS ANTITUMOR MEANS AND FOR PROTECTING HEALTHY TISSUE FROM IONIZING RADIATION” (CHARITE - UNIVERSITATSMEDIZIN BERLIN, priority 2008, published 2011).

Tests used:
[1] = test system: neutrophils; assay: Antioxidant properties: ROS formation in neutrophils; type: cell-based, male mice of the NMRI line; conditions: triggered by PMA and fMLF, depending on the dosage
Source text: The complexes A and C show a pronounced effect as antioxidant in an environment having an excess of reactive oxygen species (ROS). Thus, ROS formation in neutrophils obtained from male mice of the NMRI line was triggered by two activators: phorbol 12-myristate 13-acetate (PMA) and N-formyl-methionyl-leucylphenylalanine (fMLF).

[2] = test system: melanoma B 16; assay: B 16 melanoma in mice, intraabdominal administration; type: in vivo, mice of the line C 57Bl; conditions: 5 mg/kg intraabdominally
Experimental: The melanoma B 16 was implanted in 20 mice of the line C 57Bl by subcutaneous injection into the right thigh. The animals were divided into four groups of five mice each. Group I received complex A at a dosage of 7 mg/kg, dissolved in DMSO, which was administered intraabdominally in a 4% suspension in physiological saline. Each administration was performed 3, 5, 7 and 9 days after trans-plantation of the tumor.
Group II was treated as group I, but using a dosage of 5 mg/kg.
Group III was treated as group I, but received 5 mg/kg of melphalan hydrochloride instead of complex A.
Group IV remained untreated.

[3] = test system: colon adenocarcinoma tumor (AKATOL); assay: Transplanted colon adenocarcinoma (AKATOL), peroral administration; type: in vivo, mice of the BALB line; conditions: 10 mg/kg peroral in olive oil
Experimental: Tumor cells were transplanted in mice of the BALB line by injection into the thighs. 3 of 4 groups received the respective preparation on the peroral route 3, 4, 5, 6, 7, 8, 9 and 10 days after tumor implantation.
Group I: 10 mg/kg complex A suspended in olive oil.
Group II: 5 mg/kg complex A suspended in olive oil.
Group III: 10 mg/kg sarcolysine suspended in olive oil.
On day 21 of the experiment the animals were sacrificed and examined.

[4] = test system: human mammary gland tumor cells, T2N1M0 stage; assay: In vitro effect on human mammary gland tumor cells, Experiment 1; type: cell-based
Experimental: (§1) Tumor cells were collected from the surgical material of female patients suffering from mammary carcinoma at two different stages. The tumor tissue was added with sterile 0.25% trypsin solution and centrifuged repeatedly in RPMI-1640 nutrient medium for 15 minutes at 1500 revolutions per minute. The amount of resulting cells was counted and the suspension of tumor cells divided into five equal groups. The RPMI-1640 nutrient medium was added with 12% fetal calf serum. The cells were incubated for 48 h at 37° C. in a 5% CO2 stream.
(§2) The preparations were dissolved in 4% DMSO and physiological saline and acidified with HCl.
(§3) Two experiments were performed using cancer cells derived from tumors of different stages. To differentiate the various stages of cancer, the TNM classification is used internationally which takes into account the tumor size (T), lymph node affection (N=nodal status) and the extent of metastasis (M).
(T2: tumor up to 5 cm; N1; metastases in 3 lymph nodes; M0: no distant metastases). A suspension including 40 million cells was added with 50 μl of each preparation.
(§4) The 5 groups with cancer cells received the following:
(§5) After subjecting the preparations to flow incubation for 60 minutes, trypan blue stained cells were produced, and dead cells and apoptosis could be determined; dead cells and apoptotic cells were determined in specific units of time and morphological findings.

[5] = test system: human mammary gland tumor cells, T4N2M0 stage; assay: In vitro effect on human mammary gland tumor cells, Experiment 2; type: cell-based
Experimental: as §1, §2, §3
(T3: large tumor spreading into the tissue surrounding the breast; N2: metastases up to 9 axillary lymph nodes, M0: no distant metastases). A suspension including 40 million cells was added with 50 μl of each preparation.
as §4, §5

[6] = test system: Ehrlich ascites adenocarcinoma; assay: Ehrlich ascites adenocarcinoma in mice; type: in vivo, white mice
Experimental: The tumor was implanted intraabdominally in white mice of no particular race.
Group I received complex A orally as a suspension in olive oil at a dosage of 10 mg/kg 3, 4, 5, 6, 7, 8, 9 and 10 days after tumor implantation.
Group II received the same treatment, but using sarcolysine instead of complex A.
Group III received no treatment.
The animals were sacrificed and examined on the 11th day after tumor implantation.

NC(Cc1ccc(N(CCCl)CCCl)cc1)C(=O)O (racemic) [sarcolysine, 4-[bis(2-chloroethyl)amino]-D,L-phenylalanine, reference compound]
formation of ROS in neutrophils [1]: hardly achieved
Apoptotic index AI [2]: 3.07 ‰
Bone marrow index MI BM [2]: 1.88 ‰
Inhibition of tumor growth, mass percent [2]: mass percent 62.87%
Inhibition of tumor growth, volume percent [2]: volume percent 35.78%
Mitotic index of tumor cells MI [2]: 2.43 ‰
Average volume of tumor ([2]; days 3, 5, 7, 9): 1.4 cm^3
Average weight of tumor ([2]; days 3, 5, 7, 9): 482.6 mg
% inhibition [3]: 43%
Average weight of tumor ([3]; days 3 to 10, day 21): 1.85 g
Living cells, % ([4]; Experiment 1, T2N1M0): 54.0 ± 2.22%
Dead cells, % ([4]; Experiment 1, T2N1M0, 40 million cells, 50 μl of preparation): 46.0 ± 2.22%
Living cells, % ([5]; Experiment 2, T4N2M0): 51.0 ± 2.23%
Dead cells, % ([5]; Experiment 2, T4N2M0, 40 million cells, 50 μl of preparation): 49.0 ± 2.23%
% inhibition ([6]; 10 mg/kg orally): 47.4%
Average MI of bone marrow ([6]; 10 mg/kg orally): 0.52 ± 0.26 ‰
Average MI of tumor cells ([6]; 10 mg/kg orally): 2.0 ± 1.87 ‰
Average number of tumor cells ([6]; 10 mg/kg orally in olive oil, days 3 to 10, day 11): 77 10^6

O=c1[nH]c(=O)n(C2CCCO2)cc1F (stereo not shown) [tegafur, N-(2-furanidil)-5-fluorouracil, reference compound]
formation of ROS in neutrophils [1]: hardly achieved
